In patent US10189839B2, “Tricyclic imidazole compounds as inhibitors of tryptophan hydroxylase” (ACTELION PHARMACEUTICALS LTD, priority 2013, dated 2019):
Blank lines part the entries; values can stand above or below the compound they belong to.

How the values were obtained:
5HT [1] = details: 200 mg/kg i.p. qid for 3 days; cited from earlier work
cholangiocarcinoma = details: xenograft model of cholangiocarcinoma; cited from earlier work
5HT [2] = details: mice; cited from earlier work
[3] = tested on: blood 5HT and urinary 5HIAA; details: phase IIA study, qid; cited from earlier work
5HT [4] = details: in vivo; cited from earlier work
full length human TPH1 = target: T1, full length human TPH1 (Homo sapiens, UniProt P17752); test: Biochemical in vitro assay using fluorescence readout (TPH1 enzyme activity); details: Table 1, mean where determined several times
T1 construct: To generate the enzyme, full length human TPH1 is cloned into the plasmid pET20b(+); made in house; host or cells: E. coli
T1 sequence (P17752 1-444): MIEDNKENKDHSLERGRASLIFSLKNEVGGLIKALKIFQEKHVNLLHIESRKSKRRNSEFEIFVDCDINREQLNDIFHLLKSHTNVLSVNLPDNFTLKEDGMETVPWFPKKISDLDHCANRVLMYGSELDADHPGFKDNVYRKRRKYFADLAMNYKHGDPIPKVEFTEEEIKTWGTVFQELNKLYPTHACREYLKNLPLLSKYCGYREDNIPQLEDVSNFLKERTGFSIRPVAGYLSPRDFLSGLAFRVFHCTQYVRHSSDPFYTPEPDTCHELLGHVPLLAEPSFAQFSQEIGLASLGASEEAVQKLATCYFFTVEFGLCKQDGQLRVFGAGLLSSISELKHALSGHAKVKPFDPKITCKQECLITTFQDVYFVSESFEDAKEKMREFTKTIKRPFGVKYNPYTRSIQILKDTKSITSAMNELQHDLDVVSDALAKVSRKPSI
Method in brief: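 E. coli-expressed full-length human TPH1 (40-80 nM), affinity- and size-exclusion-purified, incubated 60 min at 15° C. in 0.1M Tris-HCl pH 7.6 with 1 mM DTT, 0.2 mg/ml catalase, 100 μM 6-methyltetrahydropterine and 40 μM L-tryptophan. 5-Hydroxy-L-tryptophan read by fluorescence (ex 300/em 540 nm) after HClO4 quench; IC50 versus vehicle, mean where repeated.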

SMILES: N[C@@H](Cc1ccc(Cl)cc1)C(=O)O (racemic) [PCA, p-chlorophenylalanine]
- 5HT in the brain (5HT [1]): ~20 % original
- 5HT in the gut (5HT [1]): ~50 % original
- tumor volume (cholangiocarcinoma): dramatic reduction in tumor volume

SMILES: Nc1nc(OC(c2ccc(-c3cccc(F)c3)cc2)C(F)(F)F)cc(-c2ccc(C[C@H](N)C(=O)O)cc2)n1 (stereo partly drawn) [LP533401]
- brain 5HT concentrations (5HT [2]): without effecting brain concentrations
- gut 5HT (5HT [2]): lower gut 5HT

SMILES: COc1cccc(-c2ccc([C@@H](Oc3cc(-c4ccc(C[C@H](N)C(=O)O)cc4)nc(N)n3)C(F)(F)F)cc2)c1 [LX1031, (S)-2-Amino-3-(4-{2-amino-6-[(R)-2,2,2-trifluoro-1-(3′-methoxy-biphenyl-4-yl)-ethoxy]-pyrimidin-4-yl}-phenyl)-propionic acid]
- blood 5HT [3]: did not affect blood 5HT
- urinary 5HIAA reduction [3]: up to 30%
- 5HT in the colon (5HT [4]): only a minor reduction observed in the colon
- 5HT in the jejunum (5HT [4]): lowers 5HT in the jejunum
- brain 5HT (5HT [4]): no effect on brain 5HT

- IC50 (full length human TPH1): 9 nM
SMILES: CCc1nc(C(=O)NC2CC2)ccc1OCC(=O)N1CCc2nc3n(c2[C@@H]1c1sc(C)nc1C)CCC3 [Example 2.4.3, (R)-N-cyclopropyl-5-(2-(1-(2,4-dimethylthiazol-5-yl)-3,4,7,8-tetrahydro-1H-pyrrolo[2′,1′:2,3]imidazo[4,5-c]pyridin-2(6H)-yl)-2-oxoethoxy)-6-ethylpicolinamide]

- IC50 (full length human TPH1): 67 nM
SMILES: CCc1nc(NS(C)(=O)=O)ncc1OCC(=O)N1CCc2nc3n(c2C1c1ccc(Cl)cc1F)CCS3 (stereo not drawn) [Example 4.1.10, N-(5-(2-(5-(4-chloro-2-fluorophenyl)-2,3,7,8-tetrahydrothiazolo[2′,3′:2,3]imidazo[4,5-c]pyridin-6(5H)-yl)-2-oxoethoxy)-4-ethylpyrimidin-2-yl)methanesulfonamide]
